# Test: preliminary toxicity study
# Conditions: no details given
structure (smiles),measurement,value
"CCCCCCNC(=O)OCC#CC#CCOC(=O)NCCCCCC [compound 166, 2,4-hexadiyn-1,6-bis(n-hexylurethane)]",toxicity,nontoxic

# Source: patent publication US20050208290A1, “Thick radiation sensitive devices” (priority 2003, published 2005)
